The results in this text go back to patent publication US9120753B2, “Phenol derivatives and pharmaceutical or cosmetic use thereof” (GALDERMA RESEARCH & DEVELOPMENT, priority 2009, dated 2015).

What is called melting point is the temperature of the solid-liquid transition.

The target in one series is T1, AR receptor (Homo sapiens, UniProt P10275).
T1 construct: expressed in transfected cells; host or cells: PALM (PC3 stably transfected with PMMTV-neo-Luc and pSG5puro-AR)
T1 sequence (P10275 1-920): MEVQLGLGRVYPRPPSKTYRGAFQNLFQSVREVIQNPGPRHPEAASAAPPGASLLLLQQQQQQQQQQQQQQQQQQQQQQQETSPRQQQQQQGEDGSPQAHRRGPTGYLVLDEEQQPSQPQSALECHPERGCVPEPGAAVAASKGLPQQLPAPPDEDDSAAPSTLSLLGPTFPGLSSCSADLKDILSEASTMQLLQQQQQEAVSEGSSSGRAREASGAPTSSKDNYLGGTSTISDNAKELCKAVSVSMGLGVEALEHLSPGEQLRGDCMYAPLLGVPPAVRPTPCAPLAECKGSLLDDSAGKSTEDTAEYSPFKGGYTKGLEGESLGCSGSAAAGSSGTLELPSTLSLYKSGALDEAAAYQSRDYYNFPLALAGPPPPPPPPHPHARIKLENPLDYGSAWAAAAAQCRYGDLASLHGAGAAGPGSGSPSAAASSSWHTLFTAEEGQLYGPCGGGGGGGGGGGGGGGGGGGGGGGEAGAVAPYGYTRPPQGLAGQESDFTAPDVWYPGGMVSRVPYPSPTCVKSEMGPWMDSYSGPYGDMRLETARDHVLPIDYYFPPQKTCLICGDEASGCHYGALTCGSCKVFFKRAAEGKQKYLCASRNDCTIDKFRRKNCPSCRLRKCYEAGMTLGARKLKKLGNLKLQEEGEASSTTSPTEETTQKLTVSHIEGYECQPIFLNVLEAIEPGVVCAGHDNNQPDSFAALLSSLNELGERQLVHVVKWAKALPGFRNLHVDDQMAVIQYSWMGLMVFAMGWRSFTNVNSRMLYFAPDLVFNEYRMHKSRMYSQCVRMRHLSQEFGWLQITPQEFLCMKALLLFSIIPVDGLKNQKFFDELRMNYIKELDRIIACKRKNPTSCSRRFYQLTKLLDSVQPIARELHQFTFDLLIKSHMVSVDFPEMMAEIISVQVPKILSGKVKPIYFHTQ
Kind of series: transactivation test in PALM (PC3 Androgen receptor Luciferase MMTV) cell line, cross curves against methyltrienolone. It is filed as cell-based. The note with it: cross curves vs reference agonist methyltrienolone, read-out: Kdapp (apparent dissociation constant). The protocol:
The compounds according to the invention show inhibitory properties on receptors of AR type. This AR receptor-inhibiting activity is measured in a transactivation test through the KdR (resting), KdA (active) and Kdapp (apparent) dissociation constants according to the method set out in J. Molecular Biology (1965), 12(1), 88-118, Monod J. et al.
The expression “AR-type receptor inhibitor” means, according to the invention, any compound which has a Kdapp dissociation constant of less than or equal to 1 μM, and a KdR/Kda ratio ≦10, in a transactivation test.
The transactivation test is carried out in the PALM (PC3 Androgen receptor Luciferase MMTV) cell line which is a stable transfectant containing the PMMTV-neo-Luc (reporter gene) and pSG5puro-AR plasmids.
In this study, the affinity of each product for the 2 receptor states (KdR and KdA) is determined, as is an apparent Kd (Kdpp). This constant is a result of the 2 Kd, but also depends on the initial equilibrium of the receptor between the active state and the resting state (L0) and on its expression level. It is determined by means of the following formula: 1/KdApp=(L0/(1+L0))x(1/KdR)+(1/(1+L0))x(1/KdA)
To determine these constants, “cross curves” of the test product against a reference agonist, methyltrienolone, are produced in 96-well plates. The test product is used at 10 concentrations and the reference agonist at 7 concentrations.
`Cc1cncc(NCc2ccccc2O)c1` [Compound 14, 2-[(5-Methylpyridin-3-ylamino)methyl]phenol]: the Kd was 15 nM. Take `N#Cc1cncc(NCc2ccccc2O)c1` [Compound 4, 5-(2-Hydroxybenzylamino)nicotinonitrile]: the Kd was 200 nM.

Take `Oc1cccc(F)c1CNc1cncc(Br)c1` [Compound 2, 2-[(5-Bromopyridin-3-ylamino)methyl]-3-fluorophenol]: the Kd was 5 nM. The same measure, in the same setting: the result for `CCC(Nc1cncc(Br)c1)c1ccccc1O` (stereo not drawn) [Compound 9, 2-[1-(5-Bromopyridin-3-ylamino)propyl]phenol] reads 60 nM; that for `Oc1ccccc1CNc1cncc(Br)c1` [Compound 1, 2-[(5-Bromopyridin-3-ylamino)methyl]phenol], 6 nM.

Test system in another series: not given
Assay: not given
Settings: not given
`Oc1ccccc1CNc1cncc(Br)c1` [Compound 1, 2-[(5-Bromopyridin-3-ylamino)methyl]phenol] registered a melting point of 184 °C.
